# Measured values reported in PubChem BioAssay AID2060346 (Molecular Pharmacology Branch, DTP, NCI, 2025).
# System: CN0375-F725-PDC multi-cell spheroids, viability
# Assay: Anticancer human tumor CN0375-F725-PDC patient-derived colon carcinoma cell line growth inhibition [TAK]
# Details: for IC50: curve of first compound; for viability, T/C: stronger effect = lower value
# How it was run: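 Tumor cells were grown as spheroids with HUVEC and hMSC (60:25:15) and treated with targeted agents combined with TAK-243 or ipatasertib. Drugs were tested in half-log steps down from near the clinical Cmax, or from 10 microM where Cmax was unknown.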
# [1] = second compound 0.3 µM, first compound 0.0316 µM
# [2] = second compound 0.3 µM, first compound 0.1 µM
# [3] = second compound 0.3 µM, first compound 0.316 µM
# [4] = second compound 0.3 µM, first compound 1 µM
# [5] = second compound 0.949 µM, first compound 0.0316 µM
# [6] = second compound 0.949 µM, first compound 0.1 µM
# [7] = second compound 0.949 µM, first compound 0.316 µM
# [8] = second compound 0.949 µM, first compound 1 µM
# [9] = second compound 3 µM, first compound 0.0316 µM
# [10] = second compound 3 µM, first compound 0.1 µM
# [11] = second compound 3 µM, first compound 0.316 µM
# [12] = second compound 3 µM, first compound 1 µM
# [13] = second compound 9.49 µM, first compound 0.0316 µM
# [14] = second compound 9.49 µM, first compound 0.1 µM
# [15] = second compound 9.49 µM, first compound 0.316 µM
# [16] = second compound 9.49 µM, first compound 1 µM
# [17] = second compound 30 µM, first compound 0.0316 µM
# [18] = second compound 30 µM, first compound 0.1 µM
# [19] = second compound 30 µM, first compound 0.316 µM
# [20] = second compound 30 µM, first compound 1 µM
# 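Note: spheroids exposed to drugs for seven days.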
# 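Throughout, for viability, T/C: 100% = DMSO vehicle control wells.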
SMILES,IC50 (second compound 0.3 µM),IC50 (second compound 0.949 µM),IC50 (second compound 3 µM),IC50 (second compound 9.49 µM),IC50 (second compound 30 µM),"viability, T/C [1]","viability, T/C [2]","viability, T/C [3]","viability, T/C [4]","viability, T/C [5]","viability, T/C [6]","viability, T/C [7]","viability, T/C [8]","viability, T/C [9]","viability, T/C [10]","viability, T/C [11]","viability, T/C [12]","viability, T/C [13]","viability, T/C [14]","viability, T/C [15]",also measured
COc1c(OCCCN2CCOCC2)ccc2c3n(c(=NC(=O)c4cnc(N)nc4)nc12)CCN3 + CC(C)NCC(C(=O)N1CCN(c2ncnc3c2C(C)CC3O)CC1)c1ccc(Cl)cc1,247 nM,211 nM,206 nM,154 nM,84.3 nM,81.1%,61.7%,45.6%,34.7%,80.1%,61.3%,42.7%,37.6%,78.5%,60.4%,41.9%,33%,69.9%,55.5%,40.4%,"viability, T/C (second compound 0.3 µM, first compound 0.00316 µM): 103%; viability, T/C (second compound 0.3 µM, first compound 0.01 µM): 88.3%; viability, T/C (second compound 0.949 µM, first compound 0.00316 µM): 100%; viability, T/C (second compound 0.949 µM, first compound 0.01 µM): 91.8%; viability, T/C (second compound 3 µM, first compound 0.00316 µM): 98.8%; viability, T/C (second compound 3 µM, first compound 0.01 µM): 83.1%; viability, T/C (second compound 9.49 µM, first compound 0.00316 µM): 92.7%; viability, T/C (second compound 9.49 µM, first compound 0.01 µM): 80.2%; viability, T/C [16]: 34.8%; viability, T/C (second compound 30 µM, first compound 0.00316 µM): 76.2%; viability, T/C (second compound 30 µM, first compound 0.01 µM): 70.5%; viability, T/C [17]: 62%; viability, T/C [18]: 47.8%; viability, T/C [19]: 37.5%; viability, T/C [20]: 32.6%"
Cc1nc(NC(=O)N2CCCC2C(N)=O)sc1-c1ccnc(C(C)(C)C(F)(F)F)c1 (stereo not given) + CC(C)NCC(C(=O)N1CCN(c2ncnc3c2C(C)CC3O)CC1)c1ccc(Cl)cc1,> 10000 nM,> 10000 nM,> 10000 nM,9460 nM,4990 nM,102%,95.6%,89.5%,82.1%,101%,97.7%,94.4%,88.7%,98.6%,98.4%,86.7%,81.8%,89.4%,94.5%,88.1%,"viability, T/C (second compound 0.3 µM, first compound 3.16 µM): 74.4%; viability, T/C (second compound 0.3 µM, first compound 10 µM): 52.5%; viability, T/C (second compound 0.949 µM, first compound 3.16 µM): 74.3%; viability, T/C (second compound 0.949 µM, first compound 10 µM): 57.9%; viability, T/C (second compound 3 µM, first compound 3.16 µM): 71.7%; viability, T/C (second compound 3 µM, first compound 10 µM): 51.6%; viability, T/C [16]: 79.5%; viability, T/C (second compound 9.49 µM, first compound 3.16 µM): 66.7%; viability, T/C (second compound 9.49 µM, first compound 10 µM): 49%; viability, T/C [17]: 80%; viability, T/C [18]: 82%; viability, T/C [19]: 71.7%; viability, T/C [20]: 67.4%; viability, T/C (second compound 30 µM, first compound 3.16 µM): 59.9%; viability, T/C (second compound 30 µM, first compound 10 µM): 37.9%"
